Measurements as given in publication PMC6368337, “GluClR-mediated inhibitory postsynaptic currents reveal targets for ivermectin and potential mechanisms of ivermectin resistance” (PLoS Pathogens, 2019).

Tests used:
[1] = molecular target: αβ (1:50) GluClRs (Haemonchus contortus, UniProt O46124+P91730); assay: Two-electrode voltage clamp in oocytes, αβ (1:50) GluClRs; type: cell-based, H. contortus; settings: 30 nM; for efficacy (maximal current normalised to saturating glutamate) compared to IVM: normalised to 5 mM glutamate, αβ 1:50; for differential efficacy between α and αβ (1:50) GluClRs: α versus αβ (1:50)
Procedure: (§1) cDNAs encoding the α (avr-14b) (pcDNA 3.1+) or β (pUNIV) GluClR subunits of H. contortus were nuclear injected into oocytes (NASCO, WI USA) or transfected into HEK293AD cells (CellBank Australia) using a calcium phosphate-DNA co-precipitate method. Synapse formation between neurons and HEK293 cells was promoted by co-transfecting neuroligin 2A or 1B and the cDNA encoding CD4 surface antigen was also added to the transfection mixture so as to identify transfected cells. The oocytes and HEK cells were used for experiments 2–3 days after the introduction of the cDNAs. All experiments were done at room temperature (22 ± 1°C).
(§2) Xenopus laevis oocytes were harvested by surgical incision. The oocytes were then defolliculated with 1.5 mg/ml collagenase for 2 hours. Free oocytes were rinsed with calcium-free OR-2 solution containing (in mM) 82.5 NaCl, 2 KCl, 1 MgCl2, 5 HEPES, pH 7.4 and mature stage V or VI oocytes were isolated for experiments. The DNAs coding for α and β subunits were nuclear injected into the oocytes using a Nanoliter 2000 microinjector (WPI Inc) at a ratio of (α:β), 1:0, 0:1, 1:1 and 1:50. The total amount of injected DNA in all combinations was 400 ng ml^−1, including the 1:50 (α:β) combination (8 ng of DNA encoding the α and 392 ng of DNA encoding β subunits). Injected oocytes were incubated in ND96 storage solution (in mM) 96 NaCl, 2 KCl, 1 MgCl2.6H2O, 1.8 CaCl2, 5 HEPES, 50 μg ml^−1 gentamicin, 2.5 sodium pyruvate, 0.5 theophylline, pH 7.4 at 16°C for 2–3 days before experiment.
(§3) For the two-electrode voltage clamp recordings, each oocyte was secured in a cell bath that was continually perfused with ND96 recording solution (ND96 storage solution without pyruvate, theophylline and gentamicin). […] The two microelectrodes contained 3 M KCl and had resistances of 0.2–2 MΩ. Recordings were done using Clampex 10.2 software (Molecular Devices) at a clamped voltage of −40 mV. Currents were low-pass filtered at 200 Hz, sampled at 2 kHz using a Gene Clamp 500B amplifier and digitised by a Digidata 1440A interface. The IVM (IVM B1a) concentration-response experiments were standardised by using an application protocol that consisted of applying increasing concentrations of IVM for, respectively, 3 min, 3 min, 3 min, 2 min, 1 min, 1 min and 0.5 min.
(§4) Group data were analysed in SigmaPlot 13.0 using one-way ANOVAs, where p < 0.05 was taken as the significance threshold and expressed as mean ± SEM. Tests for normally distributed data are built into the SigmaPlot software. Confocal images were captured and analysed with Zen 2012 SP2 (Zeiss) software. Oocyte concentration-response data were fit to a Hill equation to obtain an EC50 and Hill co-efficient for each oocyte recording. These parameters were then averaged across multiple oocyte experiments of the same type. Single channel recordings were analysed in QuB software. […] The selected critical times eliminated periods of receptor desensitisation while retaining singe receptor active periods. Mean active period duration and intra-activation open probability was estimated from each patch. Group means were obtained by averaging across multiple patches for each recording condition.

[2] = molecular target: α (avr-14b) GluClRs (Haemonchus contortus, UniProt O46124); assay: Two-electrode voltage clamp in oocytes, α GluClRs; type: cell-based, H. contortus; settings: for efficacy (maximal current normalised to saturating glutamate) compared to IVM: 30 nM, normalised to 5 mM glutamate
Procedure: as §1, §2, §3, §4

[3] = tested on: Untransfected HEK293 cells; assay: Membrane partitioning, time-lapse fluorescence; settings: 500 nM; for membrane accumulation time constant: change in membrane fluorescence over 30 min, exponential fit
Procedure: Two types of experiments were conducted with IVM-bdpy. The first was aimed at monitoring the time-course of membrane accumulation. Untransfected HEK293 cells were incubated in extracellular solution containing 500 nM IVM-bdpy and time-lapse images were taken over a period of 30 min (Fig 8A). The change in total membrane fluorescence averaged from 5 repeat experiments was then plotted against time and fitted to a standard exponential function (Fig 8B). In a control experiment, the corresponding accumulation rate was also determined for bdpy. To obtain the net membrane partitioning time-course for IVM-1, the data for the bdpy alone was subtracted from the data obtained for IVM-bdpy (Fig 8B). The time constants for the three plots were 6.5 min for the IVM-bdpy, 8.2 min for the bdpy fluorophore and 6.0 min for IVM-1. As the lipophilic properties of IVM and IVM-1 are similar (logPs of 5.4 and 5.1, respectively), we infer this analysis quantitatively reflects the membrane partitioning properties of IVM. […] It should be noted, however, that the IVM-bdpy experiment was done using a 100-fold higher concentration of drug in un-transfected cells and represents passive membrane accumulation, whereas the current plateau involved IVM binding to and activating receptors.
(§5) Membrane partitioning and FRAP experiments were performed on an LSM 710 inverted 2-photon confocal microscope equipped with a 40X water immersion objective lens (1.2 NA/280 μM WD/0.208 μM/pixel and a GFP/Alexa 488 filter set. Untransfected HEK293 cells at a confluency of 50–75% were plated onto 35-mm glass bottom dishes one day prior to experiments. The IVM-bdpy fluorophore was dissolved in 100% DMSO and stored at ‐20°C at a concentration of 24 mM.
(§6) A Mai Tai eHP 2-photon laser/760-1040 nm was used as an excitation source (power at 920 nm) for the FRAP experiments. The laser and bleaching power were set to 7% and 75% respectively. Membrane partitioning images were taken for 35 min at 0.5 Hz after replacing the cell medium (extracellular solution) with one containing the IVM-bdpy probe at a concentration of 500 nM. FRAP images were taken at a frequency of 0.5 Hz for 10 min after a 30 min equilibration period in 500 nM IVM-bdpy.

[4] = tested on: Untransfected HEK293 cells; assay: Fluorescence recovery after photobleaching (FRAP), lateral membrane diffusion
Procedure: The second experiment was aimed at determining the lateral membrane diffusion properties of IVM using the fluorescence recovery after photobleaching (FRAP) technique. After a 30-min equilibration time, 5 cells were monitored for fluorescence recovery within a bleached circular patch of membrane of 3.7 μm diameter (Fig 8C). Any bleaching and recovery of the surrounding area of the cell was measured, using a similar circular patch and used to correct the recovery rate of the membrane delineated by the bleached area. We also noted that the recovery reached 98 ± 2% of control. The time constant (τ) for recovery of 1.3 minutes was used to calculate the diffusion coefficient (D), using the radius (r) of the bleached patch, according to D = r^2/4τ. The calculated value of D was 1.1 x 10^−2 μm^2s^−1. Over the course of 1 s, the IVM-bdpy probe would traverse 0.2 μm along the membrane surface (lateral diffusion rate of 0.2 μms^−1). […] We infer that this slow lateral diffusion rate coupled to membrane partitioning are the major contributors to local increases of IVM around its target binding sites and the slow quasi-irreversible actions of IVM at GluClRs.
as §5, §6

[5] = tested on: α GluClRs; assay: IPSC recording in HEK293-neuron heteroculture, α GluClRs; type: cell-based, H. contortus; settings: HEK293-neuron co-culture, −70 mV
Procedure: as §1
Primary neuronal cultures were prepared from cortices of E18 rat embryos, (University of Queensland Biological Services), which were triturated and plated at 100,000 cells per 18-mm poly-D-lysine-coated coverslip in DMEM with 10% fetal bovine serum. After 24 h the entire medium was replaced with Neurobasal medium that included 2% B27 and 1% GlutaMAX supplements. After one week half of this medium was replaced and the neurons were allowed to grow in vitro for 3–5 weeks before introducing the transfected HEK293 cells. Recordings of synaptic currents were done in whole-cell configuration at ‐70 mV using an Axopatch 200B amplifier (Molecular Devices), filtered at 5 kHz and digitized at 20 kHz using Clampex (pClamp 10 suite, Molecular Devices) via a Digidata 1440A digitizer.

Chain of αβ (1:50) GluClRs (O46124 entry or part of it): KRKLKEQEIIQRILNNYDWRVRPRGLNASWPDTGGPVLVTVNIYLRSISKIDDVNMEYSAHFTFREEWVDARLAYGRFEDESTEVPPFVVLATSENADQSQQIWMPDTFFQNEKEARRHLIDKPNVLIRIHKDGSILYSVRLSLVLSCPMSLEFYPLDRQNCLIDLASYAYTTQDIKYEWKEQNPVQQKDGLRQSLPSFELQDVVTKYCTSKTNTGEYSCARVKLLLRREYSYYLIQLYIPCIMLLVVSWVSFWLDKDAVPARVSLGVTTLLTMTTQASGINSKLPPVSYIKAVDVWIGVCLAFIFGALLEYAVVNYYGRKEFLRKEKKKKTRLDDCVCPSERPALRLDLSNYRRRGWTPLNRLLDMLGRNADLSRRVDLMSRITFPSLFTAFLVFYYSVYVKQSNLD
Chain of αβ (1:50) GluClRs (P91730 19-432): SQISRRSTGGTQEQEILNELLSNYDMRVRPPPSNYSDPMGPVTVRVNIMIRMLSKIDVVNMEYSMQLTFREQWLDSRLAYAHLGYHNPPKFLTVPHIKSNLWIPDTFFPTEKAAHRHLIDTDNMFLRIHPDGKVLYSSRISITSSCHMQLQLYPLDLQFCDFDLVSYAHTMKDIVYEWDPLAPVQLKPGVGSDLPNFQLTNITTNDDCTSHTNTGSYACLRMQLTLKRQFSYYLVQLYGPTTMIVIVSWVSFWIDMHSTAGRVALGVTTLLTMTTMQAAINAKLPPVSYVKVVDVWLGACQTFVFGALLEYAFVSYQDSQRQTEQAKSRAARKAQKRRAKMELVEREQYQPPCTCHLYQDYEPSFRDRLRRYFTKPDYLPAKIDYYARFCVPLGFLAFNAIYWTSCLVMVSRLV
Chain of α (avr-14b) GluClRs (O46124 entry or part of it): as the sequence (O46124 entry or part of it) above

Compound	efficacy (maximal current normalised to saturating glutamate) compared to IVM [1]	differential efficacy between α and αβ (1:50) GluClRs [1]	efficacy (maximal current normalised to saturating glutamate) compared to IVM [2]	membrane accumulation time constant [3]	further results
CC[C@H](C)[C@H]1O[C@]2(CC[C@@H]1C)C[C@@H]1C[C@@H](C/C=C(\C)[C@@H](OCOC)[C@@H](C)/C=C/C=C3\CO[C@@H]4[C@H](O)C(C)=C[C@@H](C(=O)O1)[C@]34O)O2 [IVM-2]	preservation of efficacy	abolished the differential sensitivity	restored efficacy		
CC[C@H](C)[C@H]1O[C@]2(CC[C@@H]1C)C[C@@H]1C[C@@H](C/C=C(\C)[C@@H](OCOC)[C@@H](C)/C=C/C=C3\CO[C@@H]4[C@@H](O)C(C)=C[C@@H](C(=O)O1)[C@]34O)O2 [IVM-3]	most marked reduction in potency	ablated the differential efficacy	most marked reduction in potency		
CCC1=C(C)C2=C(c3ccc(OCc4cn(CCCC(=O)O[C@@H]5/C(C)=C/C[C@@H]6C[C@@H](C[C@]7(CC[C@H](C)[C@@H]([C@@H](C)CC)O7)O6)OC(=O)[C@@H]6C=C(C)[C@@H](O)[C@H]7OC/C(=C\C=C\[C@@H]5C)[C@]76O)nn4)cc3)c3c(C)c(CC)c(C)n3[B-](F)(F)[N+]2=C1C [IVM-bdpy]				6.5 min	time to saturate whole cell membranes [3]: about 18 minutes; potency relative to IVM ([2]; concentration-response, n = 6): reduced potency; activity at α GluClRs ([2]; oocyte current): active; FRAP recovery time constant (τ) ([4]; 500 nM, 30 min equilibration): 1.3 min; diffusion coefficient (D) ([4]; calculated by D = r^2/4τ): 1.1 x 10^−2 μm^2s^−1; lateral diffusion rate ([4]; in cell membrane): 0.2 μms^−1
C#CCOc1ccc(C2=C3C(C)=C(CC)C(C)=[N+]3[B-](F)(F)n3c(C)c(CC)c(C)c32)cc1 [bdpy]				8.2 min	
picrotoxin					effect on IPSCs [5]: blocked
